Measured values from patent US20120171144A1, “METHODS OF TREATING, REDUCING AND INHIBITING THE APPEARANCE OF AGEING IN THE SKIN” (priority 2006, published 2012).

Tests used:
aortic elastin = assay: 3H-elastin cleavage assay, aortic elastin; format: biochemical
Method: (§1) FIG. 2: granzyme B degrades elastin in vitro. Granzyme B was incubated with ^3H-elastin for 7 days at room temperature. Elastase was incubated with ^3H-elastin for 2 hours. Supernatants containing the soluble elastin cleavage fragments were collected and counted. Data is represented as fold increase in radioactivity over the control (elastin only). (n=2)
(§2) Tritiated elastin was prepared with the modifications as described in Banda, M. J. and Werb, Z. (1981) Biochem J 193: 589-605 and Gordon, S., Werb, Z. and Cohn, Z. A. (1976) in In Vitro Methods in Cell Mediated and Tumor Immunity, eds. Bloom, B. R. and David, J. R. (Academic Press, New York), pages 349-350. 1 mg of skin or aortic elastin was diluted in 1 ml dH2O and pHed to 9.2. 1 mCi NaB3H4 (PerkinElmer, Waltham Mass.) and 2 mg of non-radioactive […] (Sigma, St. Louis, Mo.) was added. After 2 hours of incubation, the pH was adjusted to 3.0 and the elastin was incubated for an additional 30 minutes. The elastin was centrifuged for 3 minutes at 5000×g and the pellet was repeatedly washed to remove excess NaB3H4. […] The radioactivity of the soluble, cleaved elastin fragments in the supernatant was counted in Ready Safe Scintillation Fluid (Beckman-Coulter, Fullerton, Calif.). The radioactivity of the cleaved, soluble elastin fragments was 4.8 times and 2.7 times higher than background for skin and aortic elastin, respectively (FIG. 2).

skin elastin = assay: 3H-elastin cleavage assay, skin elastin; format: biochemical
Method: as §1, §2

[1] = 25 μg elastase, 2 hours, positive control
[2] = 0.15 mg 3H-elastin, granzyme B 0.75 μg added 5 times, room temperature, 7 days

Substance	radioactivity increase over background (aortic elastin; [1])	radioactivity increase over background (skin elastin; [1])	radioactivity of the cleaved, soluble elastin fragments, higher than background (aortic elastin; [2])	radioactivity of the cleaved, soluble elastin fragments, higher than background (skin elastin; [2])
elastase	7.7 fold	14.9 fold	–	–
granzyme B: serine protease that is capable of cleaving elastin and other extracellular proteins	–	–	2.7 times	4.8 times
